{
  "source": "patent US10689394B2",
  "about": "“Thieno[2,3-b]pyridine derivative, quinoline derivative, and use thereof” (The University of Tokyo, priority 2016, dated 2020)",
  "system": "SOD1 G93A transgenic mice (ALS model mice)",
  "assay": "ALS model mice, continuous intracerebroventricular administration (rotarod onset, survival, motor neuron count)",
  "assay_type": "in vivo, mouse",
  "description": "Wild-type mice (C57BL/6) and SOD1 G93A transgenic mice (G1L/+ line, backcrossed to C57BL/6) were purchased from The Jackson Laboratory, and were then mated and/or bred. All assays were carried out using only male mice.\nUsing Brain infusion kit 3 (Alzet) and an osmotic pump (Model 2006, Alzet), the compound was continuously administered into the cerebral ventricle of the SOD1 G93A transgenic mice (average onset: 28.1+1.3-week-old (Nishitoh et al., Genes Dev 22, 1451-1464, 2008)), from the time at which the mice were 22 weeks old (0.15 μL/h, 6 weeks/pump). As a preparation stage, 50% DMSO/PBS or each compound was filled into the pump, and was then immersed in 0.9% NaCl, so that priming was carried out 37° C. for 60 hours or more. Upon installation of the pump, the mice were anesthetized by intraperitoneal administration of 0.01 μL/g xylazine (1 mg/ml, Sigma) and 0.007 μL/g Pentobarbital Sodium Salt (5.4 mg/ml, Nacalai). The head portion of each mouse was dehaired, and the mouse was then fixed on a stereotaxic instrument equipped with a manipulator (NARISHIGE). Thereafter, the skin was cut, and the skull was exposed. The coordinate of Bregma was set at 0, and the position that was 1.1 mm to the right, 0.5 mm backward, and 2.5 mm downward was set at the coordinate of the administered cerebral ventricle. The pump was arranged under the dorsal skin, a cannula was then fixed using an adhesive, and the skin on the head portion of the mouse was closed using the adhesive. The pump was exchanged with a new one every 6 weeks, until it became difficult to perform surgery due to the onset of the pathologic conditions of ALS. Upon the exchange of the pump, the mouse was anesthetized, using 4% Isoflurane (Wako Pure Chemical Industries, Ltd.) for introduction, and 2% Isoflurane for maintenance. The dorsal surface of the pump-inserted site was dehaired, and the skin was excised to remove the pump. The removed pump was exchanged with a new pump that had previously been filled with 50% DMSO/PBS or each compound. After the exchange of the pump, the excised skin was closed with Wound clip (Alzet).\nFrom the week at which the mice became 25 weeks old, motor function was measured three times a week according to a rotarod test. ROTA-ROD (Muromachi Kikai Co., Ltd.) was set at a reached rotation speed of 40 rpm and an acceleration time of 180 seconds. The period of time required until the target mouse was fallen during 300 seconds at longest was recorded. An interval of 180 seconds was provided between two trials. Two measurements were carried out in each trial, and better results were determined to be the results of the day. An average value in a week was calculated. […]",
  "data": [
    {"smiles": "C=CCN(C(=O)c1sc2nc(-c3cccnc3)ccc2c1N)c1ccccc1", "note": "[Example 1, N-allyl-3-amino-N-phenyl-6-(3-pyridinyl)thieno[2,3-b]pyridine-2-carboxamide]", "values": [
      {"measurement": "Effects on model mice", "setting": "SOD1 G93A transgenic mice", "value": "Significant effects"},
      {"measurement": "number of motor neurons in spinal cord (Nissl staining)", "setting": "SOD1 G93A transgenic mice, 31 weeks old, lumbar cord anterior horn, vs DMSO group, FIG. 11, 12", "value": "the number of motor neurons was significantly high"},
      {"measurement": "period of time required until the onset of the pathologic conditions (Onset), rotarod test", "setting": "male SOD1 G93A transgenic mice, 3 mM continuous i.c.v. by osmotic pump from 22 weeks old, vs DMSO, FIG. 10A", "value": "the onset was significantly delayed"},
      {"measurement": "effect of extending the survival period (Survival)", "setting": "male SOD1 G93A transgenic mice, 3 mM continuous i.c.v. by osmotic pump from 22 weeks old, vs DMSO, FIG. 10B", "value": "approximately 14%"}
    ]}
  ]
}
